System: rat oligodendrocyte cultures
Experiment: Primary rat oligodendrocyte differentiation assay (myelin basic protein expression)
Format: cell-based
Conditions: primary rat oligodendrocytes, compared to untreated controls
Text: • 1. Primary rat oligodendrocyte progenitor cells are obtained from the neocortex of newborn (postnatal days 2-3) rats or mice and are enriched, after removal of microglia, by mechanical separation from the astrocytic monolayer using a modification of the technique originally described by McCarthy and de Vellis (1980). • 2. Remove the meninges from neonatal rat brain and mechanically dissociate tissue. Plate cells on T75 flasks and feed cells with DMEM/F12+10% FBS. • 3. Collect oligodendrocytes growing on the astrocyte bed layer by shaking-off method fourteen days after the original prep date. Centrifuge the suspension and resuspend the cell pellet in serum free media (SFM; DMEM combined with 25 μg/ml transferring, 30 nM triiodothyronine, 20 nM hydrocortisone, 20 nM progesterone, 10 nM biotin, 1× trace elements, 30 nM selenium, 1 μg/ml putrescine, 0.1% BSA, 5 U/ml PenStrep, 10 μg/ml insulin) supplemented with the following growth factors: Platelet derived growth factor-AA (PDGF) and fibroblast growth factor-2 (FGF). • 4. Plate the cells on PDL-coated dishes and incubate at 37° C. with 6-7% CO2. • 5. Media components are replaced every 48 hr to keep the cells in a progenitor state. Progenitor Cell Passaging to Increase Cell Numbers for Screening Assays: • 1. When the culture are confluent, rinse the culture with PBS, add trypsin and incubate for ˜2-3 min at 37° C. • 2. Neutralize and centrifuge the cell suspension at 900 g for 5 min. • 3. Resuspend the cell pellet in SFM+PDGF/FGF. • 4. Feed the cells with fresh growth factors every 48 hrs to keep enrich for rapidly dividing progenitor cells. • 5. Cells are passaged no more than 4-5 times prior to experimental assays. • 6. All experiments involving oligodendrocyte progenitor cells were done using cells that were continuously maintained under these conditions. Greater than 95% of all cells were A2B5 immunopositive and expressed 2′3′-cyclic nucleotide 3′-phosphodiesterase II mRNA. • 7. To generate mature oligodendrocytes, 24 h after plating progenitor cells were switched to SFM supplemented with or without IGF-I and grown under these conditions for 7 d prior to experimental assays. • 8. Alternatively, the enriched rat Central Glia-4 (CG4) progenitor cell line may be used, which is maintained in base media (DMEM, with 2 mM glutamine, 1 mM sodium pyruvate, biotin (40 nM), insulin (1 μM) and N1) supplemented with 30% conditioned media from the B-104 neuroblastoma cell line. To induce differentiation, CG4 cells are switched to base media with 1% fetal calf serum (removed after 2 days) and insulin (500 nM). A2B5 and MBP immunoreactivity is used to confirm >95% enrichment in immature and mature cultures, respectively. Rat/Mouse Culture Compound Treatment: • 1. […]

SMILES | Fold Increase in Myelin Basic Protein Expression in Oligodendrocyte Differentiation Assay (concentration 10 μM) | Fold Increase in Myelin Basic Protein Expression in Oligodendrocyte Differentiation Assay (concentration 1 μM)
Cc1nc(-c2ccc(C(F)(F)F)cc2)sc1COc1ccc(-c2n[nH]c(=O)o2)cc1 [Example 10, 5-{4-[4-Methyl-2-(4-trifluoromethyl-phenyl)-thiazol-5-ylmethoxy]-phenyl}-3H-[1,3,4]oxadiazol-2-one] | 1.5 fold (10) | –
Cc1nc(-c2ccc(C(F)(F)F)cc2)sc1COCc1ccc(-c2n[nH]c(=O)o2)cc1 [Example 14] | – | 1.5 fold (1)
CCCCc1nc(-c2ccc(C(F)(F)F)cc2)sc1COc1ccc(-c2n[nH]c(=O)o2)c(Cl)c1 [Example 23] | – | 2 fold (1)
CCCCc1nc(-c2ccc(C(F)(F)F)cc2)sc1COc1ccc(Cc2n[nH]c(=O)o2)cc1 [Example 31, 5-{4-[4-Butyl-2-(4-trifluoromethyl-phenyl)-thiazol-5-ylmethoxy]-benzyl}-3H-[1,3,4]oxadiazol-2-one] | – | 2 fold (1)

— patent publication US7576109B2, “1,3,4-oxadiazol-2-ones as PPAR delta modulators and their use thereof” (Aventis Pharmaceuticals Inc., priority 2004, dated 2009)
